Data set [1] deals with T1, 5-hydroxytryptamine receptor 1A (Homo sapiens, UniProt P08908).
T1 sequence (P08908 whole entry): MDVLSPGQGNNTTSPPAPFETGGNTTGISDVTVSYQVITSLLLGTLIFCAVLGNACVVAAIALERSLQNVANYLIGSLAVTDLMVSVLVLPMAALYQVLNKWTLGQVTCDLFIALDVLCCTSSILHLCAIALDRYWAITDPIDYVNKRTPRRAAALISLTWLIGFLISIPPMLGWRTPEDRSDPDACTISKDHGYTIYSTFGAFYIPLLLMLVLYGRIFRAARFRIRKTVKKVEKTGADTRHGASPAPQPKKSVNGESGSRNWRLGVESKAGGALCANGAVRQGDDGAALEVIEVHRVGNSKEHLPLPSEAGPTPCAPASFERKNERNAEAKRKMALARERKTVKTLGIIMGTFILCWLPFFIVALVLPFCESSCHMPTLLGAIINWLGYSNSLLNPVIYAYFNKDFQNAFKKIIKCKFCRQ

The target of data set [2] is T2, 5-hydroxytryptamine receptor 1D (Homo sapiens, UniProt P28221).
In data set [3] the target is T3, 5-hydroxytryptamine receptor 1B (Homo sapiens, UniProt P28222). Briefly: Displacement of [3H]-5-HT from human 5-hydroxytryptamine 1D receptor beta.
Data set [4] has as its target T3, 5-hydroxytryptamine receptor 1B. Briefly: Binding affinity towards cloned human 5-hydroxytryptamine 1D receptor was determined using […] as radioligand.
Data set [5] shares this target.
Data set [6] deals with T2, 5-hydroxytryptamine receptor 1D. The data set can be described thus: Binding affinity of compound against 5-HT1Dalpha Binding affinity of compound against 5-HT1D alpha receptors in human.
The species named for data set [7] is Cavia porcellus. The data set can be described thus: Dissociation constant using guinea pig caudate membrane homogenate. It is filed as ADME.

Each structure is given as a SMILES string.

T2 sequence (P28221 whole entry): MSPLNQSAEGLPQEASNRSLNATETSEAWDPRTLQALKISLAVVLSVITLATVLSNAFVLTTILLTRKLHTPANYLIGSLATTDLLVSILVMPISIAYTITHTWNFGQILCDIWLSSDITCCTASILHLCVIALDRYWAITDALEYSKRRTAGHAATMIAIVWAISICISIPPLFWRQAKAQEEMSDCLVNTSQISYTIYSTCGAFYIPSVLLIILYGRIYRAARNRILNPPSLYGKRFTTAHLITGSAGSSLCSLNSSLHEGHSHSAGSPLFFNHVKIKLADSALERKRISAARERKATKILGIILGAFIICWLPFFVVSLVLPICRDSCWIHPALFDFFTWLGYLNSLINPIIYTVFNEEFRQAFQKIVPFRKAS
T3 sequence (P28222 whole entry): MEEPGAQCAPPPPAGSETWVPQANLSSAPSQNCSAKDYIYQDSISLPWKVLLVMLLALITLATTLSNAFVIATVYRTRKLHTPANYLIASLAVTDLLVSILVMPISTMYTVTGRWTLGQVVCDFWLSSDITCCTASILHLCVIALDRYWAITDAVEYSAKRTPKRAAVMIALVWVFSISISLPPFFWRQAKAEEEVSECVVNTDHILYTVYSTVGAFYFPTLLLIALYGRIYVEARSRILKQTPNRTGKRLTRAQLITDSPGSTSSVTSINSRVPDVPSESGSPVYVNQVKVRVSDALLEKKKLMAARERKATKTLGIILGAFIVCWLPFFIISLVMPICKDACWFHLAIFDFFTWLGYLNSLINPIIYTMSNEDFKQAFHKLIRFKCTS

Take `CCc1ccc2[nH]cc(CCN)c2c1`: in data set [1], the affinity, expressed as Ki, was 20 nM.
Still for that read-out and setting: as for `CC(C)(C)CCCCCCCOc1ccc2[nH]cc(CCN)c2c1`, the figure is 63 nM.
With `COc1ccc2[nH]c3c(c2c1)CC(N)CC3` (configuration not stated), the Ki in data set [2] stood at 1190 nM; in data set [3], 342 nM.
On to `CCCCCCCCCOc1ccc2[nH]c3c(c2c1)CCN(C)C3`, for which the Ki in data set [4] is over 1000 nM.
Take `CCCCCCOc1ccc2[nH]c3c(c2c1)CC(N)CC3` (configuration not stated): the Ki was found to be 1100 nM in data set [2] and 188 nM in data set [5].
With `CCCOc1ccc2[nH]cc(CCN)c2c1`, the inhibitory constant (Ki) in data set [1] was found to be 88 nM.
As for `CCCCCCCCCCCOc1ccc2[nH]cc(CCN)c2c1`, the inhibitory constant (Ki) in data set [2] is 69 nM; in data set [1] it was 885 nM.
The corresponding values for `NCCc1c[nH]c2ccc(OCCCCC3CCCCC3)cc12` are 55 nM and 800 nM.
Compound `COc1ccc2[nH]c3c(c2c1)CC(N(C)C)CC3` (configuration not stated) gave a Ki in data set [5] of over 1000 nM.
For `CCCCCCCCCOc1ccc2[nH]c3c(c2c1)CC(N)CC3` (configuration not stated), the Ki was 2350 nM in data set [6] and 172 nM in data set [5].
For the compound `CC(C)(C)CCCCCCOc1ccc2[nH]cc(CCN)c2c1`, the figures for the inhibition constant (Ki) in data set [2] and in data set [1] were 16 nM and 920 nM, respectively.
In data set [2], `CC(C)CCCCCCOc1ccc2[nH]cc(CCN)c2c1` returned a Ki of 42 nM.
Turning to `CCCCCCCCCCOc1ccc2[nH]cc(CCN)c2c1`, the values for the inhibition constant Ki in data set [2] and in data set [1] were 42 nM and 575 nM, respectively.
Regarding `NC(=O)c1ccc2[nH]c3c(c2c1)CC(N)CC3` (configuration not stated), the negative-log KD (pKD) in data set [7] stood at 8. Affinity in data set [5] was put at a Ki of 10 nM.
`CCCCCOc1ccc2[nH]cc(CCN)c2c1`: the results for the Ki in data set [2] and in data set [1] were 1.5 nM and 42 nM, respectively.
The corresponding values for `CCCCCCCOc1ccc2[nH]cc(CCN)c2c1` are 4.9 nM and 38 nM.
In data set [1], `CCCCCCCCC(=O)Oc1ccc2[nH]cc(CCN(C)C)c2c1` showed a Ki of 9.3 nM.
As to `CCCCCCCCCCc1ccc2[nH]c3c(c2c1)CC(N)CC3` (configuration not stated), the Ki in data set [4] is over 1000 nM.
Compound `CCCCCCCCCOc1ccc2[nH]cc(CCN(C)C)c2c1` registered a Ki in data set [1] of 575 nM.
Still for that read-out and setting: as for `CCC(=O)Oc1ccc2[nH]cc(CCN(C)C)c2c1`, the figure is 405 nM.
As to `CCCCCCCCOc1ccc2[nH]cc(CCN)c2c1`, in data set [2], the affinity, expressed as Ki, was 1.6 nM.
The same measure, in the same setting: as for `CCCCCCCCCCc1ccc2[nH]cc(CCN)c2c1`, the figure is 210 nM.
Regarding `CCCCCCCCCOc1ccc2[nH]cc(CCNCCCC)c2c1`, the values for the Ki in data set [2] and in data set [1] were 223 nM and 1550 nM, respectively.
`CCc1ccc2[nH]cc(CCN(C)C)c2c1` displayed an inhibition constant (Ki) in data set [1] of 15 nM.
On the same count and under the same terms, as for `COc1ccc2[nH]cc(CCN)c2c1` [5-METHOXYTRYPTAMINE], the figure is 3.2 nM; as for `CC(=O)c1ccc2[nH]cc(CCN)c2c1` [ACETRYPTINE], 1.3 nM.

The record behind these values is ChEMBL document CHEMBL1129297 (J Med Chem, 1996).
